{
  "source": "patent US20060084688A1",
  "about": "“Aromatic sulfone hydroxamic acid metalloprotease inhibitor” (priority 1997, published 2006)",
  "key": {"[1]": {"tested_on": "neovascularization of the corneal stroma", "assay": "In vivo angiogenesis assay (corneal micropocket, bFGF/sucralfate Hydron pellet)", "set-up": "species or system C57Bl/6 female mouse", "settings": "50 mpk bid, po; scored at day five; average of n studies", "procedure": "The study of angiogenesis depends on a reliable and reproducible model for the stimulation and inhibition of a neovascular response. The corneal micropocket assay provides such a model of angiogenesis in the cornea of a mouse. See, A Model of Angiogenesis in the Mouse Cornea; Kenyon, BM, et al., Investigative Ophthalmology & Visual Science, July 1996, Vol. 37, No. 8.\nIn this assay, uniformLy sized Hydron™ pellets containing bFGF and sucralfate were prepared and surgically implanted into the stroma mouse cornea adjacent to the temporal limbus. […]\nMice were dosed on a daily basis for the duration of the assay. […] At day five, the degree of angiogenic inhibition was scored by viewing the neovascular progression with a slit lamp microscope.\nThe mice were anesthetized and the studied eye was once again proptosed. The maximum vessel length of neovascularization, extending from the limbal vascular plexus toward the pellet was measured. In addition, the contiguous circumferential zone of neovascularization was measured as clock hours, where 30 degrees of arc equals one clock hour. The area of angiogenesis was calculated as follows. […]\nFive to six mice were utilized for each compound in each study. The studied mice were thereafter compared to control mice and the difference in the area of neovascularization was recorded as an averaged value. […]"}, "[2]": {"tested_on": "PC-3 human pancreatic cancer cells (ATCC CRL 1435)", "assay": "In vivo PC-3 tumor reduction", "set-up": "species or system Balb/c nu/nu mice", "settings": "day 0 to day 25-30, average of n studies", "procedure": "PC-3 human pancreatic cancer eclls (ATCC CRL 1435) were grown to 90% confluence in F12/MEM (Gibco) containing 7% FBS (Gibco). Cells were mechanically harvested using a rubber scraper, and then washed twice with cold medium. The resulting cells were resuspended in cold medium with 30% matrigel (Collaborative Research) and the cell-containing medium was maintained on ice until used.\nBalb/c nu/nu mice at 7-9 weeks of age were anesthetized with avertin [2,2,2-tribromethanol/t-amyl alcohol (1 g/l mL) diluted 1:60 into phosphate-buffered sline] and 3-5×10^6 of the above cells in 0.2 mL of medium were injected into the left flank of each mouse. Cells were injected in the morning, whereas dosing with an inhibitor began at 6 PM. The animals were gavaged BID from day zero (cell injection day) to day 25-30, at which time the animals were euthanized and tumors weighed.\nCompounds were dosed at 10 mg/mL in 0.5% methylcellulose/0.1% polysorbate 80 to provide a 50 mg/kg (mpk) dose twice each day, or diluted to provide a 10 mg/kg (mpk) dose twice each day. Tumor measurements began on day 7 and continued every third or fourth day until completion of the study. Groups of ten mice were used in each study and nine to ten survived. Each group of mice so studied constitutes an “n” value of one, so that “n” values greater than one represent multiple studies whose averaged result is provided in the table. […]"}, "[3]": {"tested_on": "advanced, rapidly progressive, treatment-refractory solid tumor cancers (colorectal, pancreatic, ovarian, prostate)", "settings": "Phase I/II, cited from earlier work"}},
  "data": [
    {"smiles": "CNC(=O)[C@@H](NC(=O)[C@H](CC(C)C)[C@H](O)C(=O)NO)C(C)(C)C", "note": "[marimastat]", "values": [
      {"measurement": "Inhibition of Angiogenesis (area of neovascularization vs control)", "setting": "[1]", "value": "48 (n = 6) percent"},
      {"measurement": "Average Percentage Reduction In Tumor Weight", "setting": "[2]; 10 mpk BID gavage", "value": "<5", "unit": "%"},
      {"measurement": "Average Percentage Reduction In Tumor Weight", "setting": "[2]; 50 mpk BID gavage", "value": "39 (n = 2) percent"},
      {"measurement": "most common drug-related toxicity", "setting": "[3]; clinical trials", "value": "musculoskeletal pain and stiffness"},
      {"measurement": "cancer-specific antigens used as surrogate markers for biological activity", "setting": "[3]; patients with advanced solid tumor cancers", "value": "dose-related reduction in the rise of cancer-specific antigens"}
    ]}
  ]
}
